Data from patent US11192867B2, “Microbiocidal oxadiazole derivatives” (SYNGENTA PARTICIPATIONS AG, priority 2016, dated 2021).

Legend:
[1] = system: Puccinia recondita f. sp. Tritici; experiment: Fungicidal activity against Puccinia recondita f. sp. Tritici / wheat / leaf disc preventative (brown rust); type: in vivo; settings: foliar, 200 ppm in the applied formulation, wheat leaf segments cv. Kanzler, inoculated 1 day after application, vs untreated control, read-out: disease control
Outline: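 Preventative leaf-segment test: compound at 200 ppm applied by spray to Kanzler wheat, with spore inoculation following after one day. Disease control relative to untreated check read 7 to 9 days post-application, incubation at 19° C., 75% relative humidity, 12 h light/12 h dark.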

[2] = system: Puccinia recondita f. sp. Tritici; experiment: Fungicidal activity against Puccinia recondita f. sp. Tritici / wheat / leaf disc curative (brown rust); type: in vivo; settings: foliar, 24 h, 200 ppm in the applied formulation, wheat leaf segments cv. Kanzler, applied 1 day after inoculation, vs untreated control, read-out: disease control
Procedure: Leaf disks or leaf segments of various plant species are cut from plants grown in a greenhouse. The cut leaf disks or segments are placed in multiwell plates (24-well format) onto water agar. The leaf disks are sprayed with a test solution before (preventative) or after (curative) inoculation. Compounds to be tested are prepared as DMSO solutions (max. 10 mg/ml) which are diluted to the appropriate concentration with 0.025% Tween20 just before spraying. The inoculated leaf disks or segments are incubated under defined conditions (temperature, relative humidity, light, etc.) according to the respective test system. A single evaluation of disease level is carried out 3 to 14 days after inoculation, depending on the pathosystem. Percent disease control relative to the untreated check leaf disks or segments is then calculated.
Wheat leaf segments cv. Kanzler are placed on agar in multiwell plates (24-well format). The leaf segments are then inoculated with a spore suspension of the fungus. Plates were stored in darkness at 19° C. and 75% relative humidity. The formulated test compound diluted in water was applied 1 day after inoculation. The leaf segments were incubated at 19° C. and 75% relative humidity under a light regime of 12 hours light/12 hours darkness in a climate cabinet and the activity of a compound was assessed as percent disease control compared to untreated when an appropriate level of disease damage appears in untreated check leaf segments (6 to 8 days after application).
The following compounds at 200 ppm in the applied formulation give at least 80% disease control in this test when compared to untreated control leaf disks under the same conditions, which show extensive disease development.

Phakopsora pachyrhizi = experiment: Fungicidal activity against Phakopsora pachyrhizi / soybean / leaf disc preventative (Asian soybean rust); type: in vivo; settings: foliar, 200 ppm in the applied formulation, soybean leaf disks, vs untreated control, read-out: disease control
Outline: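 Soybean leaf discs on water agar sprayed with compound diluted in water, then inoculated with spores on the lower surface one day later. Kept 24-36 h dark, 20 °C, 75% rh, then 12 h light/12 h dark. Percent disease control versus untreated scored 12-14 days after application.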

[3] = system: Glomerella lagenarium (Colletotrichum lagenarium); experiment: Fungicidal activity against Glomerella lagenarium (Colletotrichum lagenarium) liquid culture / cucumber / preventative (anthracnose); type: cell-based; settings: Colletotrichum orbiculare, 72 h; 20 ppm in the applied formulation; liquid culture (PDB), growth inhibition measured photometrically 3 to 4 days after application; vs untreated control; read-out: disease control
Outline: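 Conidia from cryogenic storage were mixed into potato dextrose broth and added to DMSO solutions of test compound in microtiter plates. Plates were incubated at 24° C. and growth inhibition read photometrically 3 to 4 days after application, as percent antifungal activity versus untreated check.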

## CC(ON=CCNC(=O)c1ccc(-c2noc(C(F)(F)F)n2)cc1)C(=O)O (centres unmarked) [Compound 1.82, 2-[2-[[4-[5-(trifluoromethyl)-1,2,4-oxadiazol-3-yl]benzoyl]amino]ethylideneamino] oxypropanoic acid]
[1]
  pest or weed control at 200 ppm: ≥ 80%
[2]
  pest or weed control at 200 ppm: ≥ 80%
Phakopsora pachyrhizi
  pest or weed control at 200 ppm: ≥ 80%
[3]
  inhibition of growth at 20 ppm: ≥ 80%

## CC(C)(C)ON=CCNC(=O)c1ccc(-c2noc(C(F)(F)F)n2)cc1 [Compound 1.89, N-(2-tert-butoxyiminoethyl)-4-[5-(trifluoromethyl)-1,2,4-oxadiazol-3-yl]benzamide]
[1]
  pest or weed control at 200 ppm: ≥ 80%
[2]
  pest or weed control at 200 ppm: ≥ 80%
Phakopsora pachyrhizi
  pest or weed control at 200 ppm: ≥ 80%
[3]
  inhibition of growth at 20 ppm: ≥ 80%

## C=CCON=CCNC(=O)c1ccc(-c2noc(C(F)(F)F)n2)cc1 [Compound 1.91, N-(2-allyloxyiminoethyl)-4-[5-(trifluoromethyl)-1,2,4-oxadiazol-3-yl]benzamide]
[1]
  pest or weed control at 200 ppm: ≥ 80%
[2]
  pest or weed control at 200 ppm: ≥ 80%
Phakopsora pachyrhizi
  pest or weed control at 200 ppm: ≥ 80%
[3]
  inhibition of growth at 20 ppm: ≥ 80%

## CC(C)ON=CCNC(=O)c1ccc(-c2noc(C(F)(F)F)n2)cc1 [Compound 1.94, N-(2-isopropoxyimino-ethyl)-4-[5-(trifluoromethyl)-1,2,4-oxadiazol-3-yl]benzamide]
[1]
  pest or weed control at 200 ppm: ≥ 80%
[2]
  pest or weed control at 200 ppm: ≥ 80%
Phakopsora pachyrhizi
  pest or weed control at 200 ppm: ≥ 80%
[3]
  inhibition of growth at 20 ppm: ≥ 80%

## O=C(NCC=NOCC(F)(F)F)c1ccc(-c2noc(C(F)(F)F)n2)cc1 [Compound 1.95, N-[2-(2,2,2-trifluoroethoxy-imino)ethyl]-4-[5-(trifluoromethyl)-1,2,4-oxadiazol-3-yl]benzamide]
[1]
  pest or weed control at 200 ppm: ≥ 80%
[2]
  pest or weed control at 200 ppm: ≥ 80%
Phakopsora pachyrhizi
  pest or weed control at 200 ppm: ≥ 80%
[3]
  inhibition of growth at 20 ppm: ≥ 80%

## C=C(Cl)CON=CCNC(=O)c1ccc(-c2noc(C(F)(F)F)n2)cc1 [Compound 1.100, N-[2-(2-chloroallyloxy-imino)ethyl]-4-[5-(trifluoromethyl)-1,2,4-oxadiazol-3-yl]benzamide]
[1]
  pest or weed control at 200 ppm: ≥ 80%
[2]
  pest or weed control at 200 ppm: ≥ 80%
Phakopsora pachyrhizi
  pest or weed control at 200 ppm: ≥ 80%
[3]
  inhibition of growth at 20 ppm: ≥ 80%

## O=C(NCC=NOCC1CC1)c1ccc(-c2noc(C(F)(F)F)n2)cc1 [Compound 1.101, N-[2-(cyclopropyl-methoxyimino)ethyl]-4-[5-(trifluoromethyl)-1,2,4-oxadiazol-3-yl]benzamide]
[1]
  pest or weed control at 200 ppm: ≥ 80%
[2]
  pest or weed control at 200 ppm: ≥ 80%
Phakopsora pachyrhizi
  pest or weed control at 200 ppm: ≥ 80%
[3]
  inhibition of growth at 20 ppm: ≥ 80%

## O=C(NCC=NOC1COC1)c1ccc(-c2noc(C(F)(F)F)n2)cc1 [Compound 1.102, N-[2-(oxetan-3-yloxyimino)ethyl]-4-[5-(trifluoromethyl)-1,2,4-oxadiazol-3-yl]benzamide]
[1]
  pest or weed control at 200 ppm: ≥ 80%
[2]
  pest or weed control at 200 ppm: ≥ 80%
Phakopsora pachyrhizi
  pest or weed control at 200 ppm: ≥ 80%
[3]
  inhibition of growth at 20 ppm: ≥ 80%

## CC(CNC(=O)c1ccc(-c2noc(C(F)(F)F)n2)cc1)=NOCCO [Compound 1.104]
[1]
  pest or weed control at 200 ppm: ≥ 80%
[2]
  pest or weed control at 200 ppm: ≥ 80%
Phakopsora pachyrhizi
  pest or weed control at 200 ppm: ≥ 80%
[3]
  inhibition of growth at 20 ppm: ≥ 80%

## CC(CNC(=O)c1ccc(-c2noc(C(F)(F)F)n2)cc1)=NOCCN [Compound 1.110, N-[2-(2-aminoethoxy-imino)propyl]-4-[5-(trifluoromethyl)-1,2,4-oxadiazol-3-yl]benzamide]
[1]
  pest or weed control at 200 ppm: ≥ 80%
[2]
  pest or weed control at 200 ppm: ≥ 80%
Phakopsora pachyrhizi
  pest or weed control at 200 ppm: ≥ 80%
[3]
  inhibition of growth at 20 ppm: ≥ 80%

## CC(CNC(=O)c1ccc(-c2noc(C(F)(F)F)n2)cc1)=NOC1CCCCO1 (centres unmarked) [Compound 1.114, N-(2-tetrahydropyran-2-yloxyiminopropyl)-4-[5-(trifluoromethyl)-1,2,4-oxadiazol-3-yl]benzamide]
[1]
  pest or weed control at 200 ppm: ≥ 80%
[2]
  pest or weed control at 200 ppm: ≥ 80%
Phakopsora pachyrhizi
  pest or weed control at 200 ppm: ≥ 80%
[3]
  inhibition of growth at 20 ppm: ≥ 80%

## CCCON=C(C)CNC(=O)c1ccc(-c2noc(C(F)(F)F)n2)cc1 [Compound 1.116, N-(2-propoxyimino-propyl)-4-[5-(trifluoromethyl)-1,2,4-oxadiazol-3-yl]benzamide]
[1]
  pest or weed control at 200 ppm: ≥ 80%
[2]
  pest or weed control at 200 ppm: ≥ 80%
Phakopsora pachyrhizi
  pest or weed control at 200 ppm: ≥ 80%
[3]
  inhibition of growth at 20 ppm: ≥ 80%

## CON=C(C)CNC(=O)c1ccc(-c2noc(C(F)(F)F)n2)cc1 [Compound 1.133, N-(2-methoxyimino-propyl)-4-[5-(trifluoromethyl)-1,2,4-oxadiazol-3-yl]benzamide]
[1]
  pest or weed control at 200 ppm: ≥ 80%
[2]
  pest or weed control at 200 ppm: ≥ 80%
Phakopsora pachyrhizi
  pest or weed control at 200 ppm: ≥ 80%
[3]
  inhibition of growth at 20 ppm: ≥ 80%

## C=CCON=C(C)CNC(=O)c1ccc(-c2noc(C(F)(F)F)n2)cc1 [Compound 1.135, N-(2-allyloxyimino-propyl)-4-[5-(trifluoromethyl)-1,2,4-oxadiazol-3-yl]benzamide]
[1]
  pest or weed control at 200 ppm: ≥ 80%
[2]
  pest or weed control at 200 ppm: ≥ 80%
Phakopsora pachyrhizi
  pest or weed control at 200 ppm: ≥ 80%
[3]
  inhibition of growth at 20 ppm: ≥ 80%

## CC(CNC(=O)c1ccc(-c2noc(C(F)(F)F)n2)cc1)=NOC(C)C [Compound 1.138, N-(2-isopropoxyimino-propyl)-4-[5-(trifluoromethyl)-1,2,4-oxadiazol-3-yl]benzamide]
[1]
  pest or weed control at 200 ppm: ≥ 80%
[2]
  pest or weed control at 200 ppm: ≥ 80%
Phakopsora pachyrhizi
  pest or weed control at 200 ppm: ≥ 80%
[3]
  inhibition of growth at 20 ppm: ≥ 80%

## CC(CNC(=O)c1ccc(-c2noc(C(F)(F)F)n2)cc1)=NOCC1CC1 [Compound 1.145, N-[2-(cyclopropyl-methoxyimino)propyl]-4-[5-(trifluoromethyl)-1,2,4-oxadiazol-3-yl]benzamide]
[1]
  pest or weed control at 200 ppm: ≥ 80%
[2]
  pest or weed control at 200 ppm: ≥ 80%
Phakopsora pachyrhizi
  pest or weed control at 200 ppm: ≥ 80%
[3]
  inhibition of growth at 20 ppm: ≥ 80%

## CC(CNC(=O)c1ccc(-c2noc(C(F)(F)F)n2)cc1)=NOC1COC1 [Compound 1.146, N-[2-(oxetan-3-yloxyimino)propyl]-4-[5-(trifluoromethyl)-1,2,4-oxadiazol-3-yl]benzamide]
[1]
  pest or weed control at 200 ppm: ≥ 80%
[2]
  pest or weed control at 200 ppm: ≥ 80%
Phakopsora pachyrhizi
  pest or weed control at 200 ppm: ≥ 80%
[3]
  inhibition of growth at 20 ppm: ≥ 80%

## CON=CC(C)NC(=O)c1ccc(-c2noc(C(F)(F)F)n2)cc1F (centres unmarked) [Compound 1.155, 2-fluoro-N-(2-methoxyimino-1-methyl-ethyl)-4-[5-(trifluoromethyl)-1,2,4-oxadiazol-3-yl]benzamide]
[1]
  pest or weed control at 200 ppm: ≥ 80%
Phakopsora pachyrhizi
  pest or weed control at 200 ppm: ≥ 80%
[3]
  inhibition of growth at 20 ppm: ≥ 80%
other
  melting point: 132 to 134 °C

## CON=CCNC(=O)c1ccc(-c2noc(C(F)(F)F)n2)cc1F [Compound 1.169, 2-fluoro-N-(2-methoxyimino-ethyl)-4-[5-(trifluoromethyl)-1,2,4-oxadiazol-3-yl]benzamide]
other
  melting point: 116 to 118 °C

## CO/N=C/CN(C(=O)c1ccc(-c2noc(C(F)(F)F)n2)cc1)C1CC1 [Compound 1.170, N-cyclopropyl-N-[(2E)-2-methoxyiminoethyl]-4-[5-(trifluoromethyl)-1,2,4-oxadiazol-3-yl]benzamide]
other
  melting point: 60 to 62 °C
